Source: PubChem BioAssay (NCI)
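All cell lines were grown in 96-well plates and treated with compound for 48 hours. TGI marks complete inhibition of growth.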

Tests used:
Assay in all cases: NCI anticancer screen, dose series, 48 h
786-0 renal = test system: 786-0 renal
A498 renal = test system: A498 renal
A549 NSCLC = test system: A549 NSCLC
ACHN renal = test system: ACHN renal
CAKI-1 renal = test system: CAKI-1 renal
CCRF-CEM leukemia = test system: CCRF-CEM leukemia
COLO 205 colon = test system: COLO 205 colon
DLD-1 colon = test system: DLD-1 colon
DMS 114 small cell lung = test system: DMS 114 small cell lung
DMS 273 small cell lung = test system: DMS 273 small cell lung
EKVX NSCLC = test system: EKVX NSCLC
HCC-2998 colon = test system: HCC-2998 colon
HCT-116 colon = test system: HCT-116 colon
HCT-15 colon = test system: HCT-15 colon
HL-60(TB) leukemia = test system: HL-60(TB) leukemia
HOP-18 NSCLC = test system: HOP-18 NSCLC
HOP-62 NSCLC = test system: HOP-62 NSCLC
HOP-92 NSCLC = test system: HOP-92 NSCLC
HT29 colon = test system: HT29 colon
IGROV1 ovarian = test system: IGROV1 ovarian
K-562 leukemia = test system: K-562 leukemia
KM12 colon = test system: KM12 colon
KM20L2 colon = test system: KM20L2 colon
LOX IMVI melanoma = test system: LOX IMVI melanoma
LXFL 529 NSCLC = test system: LXFL 529 NSCLC
M14 melanoma = test system: M14 melanoma
M19-MEL melanoma = test system: M19-MEL melanoma
MALME-3M melanoma = test system: MALME-3M melanoma
MOLT-4 leukemia = test system: MOLT-4 leukemia
NCI-H226 lung = test system: NCI-H226 lung
NCI-H23 lung = test system: NCI-H23 lung
NCI-H460 lung = test system: NCI-H460 lung
NCI-H522 lung = test system: NCI-H522 lung
OVCAR-3 ovarian = test system: OVCAR-3 ovarian
OVCAR-4 ovarian = test system: OVCAR-4 ovarian
OVCAR-5 ovarian = test system: OVCAR-5 ovarian
OVCAR-8 ovarian = test system: OVCAR-8 ovarian
RPMI-8226 leukemia = test system: RPMI-8226 leukemia
RXF 393 renal = test system: RXF 393 renal
SF-268 CNS = test system: SF-268 CNS
SF-295 CNS = test system: SF-295 CNS
SF-539 CNS = test system: SF-539 CNS
SK-MEL-2 melanoma = test system: SK-MEL-2 melanoma
SK-MEL-28 melanoma = test system: SK-MEL-28 melanoma
SK-MEL-5 melanoma = test system: SK-MEL-5 melanoma
SK-OV-3 ovarian = test system: SK-OV-3 ovarian
SN12C renal = test system: SN12C renal
SNB-19 CNS = test system: SNB-19 CNS
SNB-75 CNS = test system: SNB-75 CNS
SNB-78 CNS = test system: SNB-78 CNS
SR leukemia = test system: SR leukemia
SW-620 colon = test system: SW-620 colon
TK-10 renal = test system: TK-10 renal
U251 CNS = test system: U251 CNS
UACC-257 melanoma = test system: UACC-257 melanoma
UACC-62 melanoma = test system: UACC-62 melanoma
UO-31 renal = test system: UO-31 renal
XF 498 CNS = test system: XF 498 CNS

Cc1c2ccccc2c(C)c2c3c(ccc12)C(=O)C=CC3=O
TGI (786-0 renal): > 62.2 µM | TGI (A498 renal): > 100 µM | TGI (A549 NSCLC): > 100 µM | TGI (ACHN renal): 33.3 µM | TGI (CAKI-1 renal): 46.3 µM | TGI (CCRF-CEM leukemia): 6.75 µM | TGI (COLO 205 colon): 31.5 µM | TGI (DLD-1 colon): 40.8 µM | TGI (DMS 114 small cell lung): 25.8 µM | TGI (DMS 273 small cell lung): > 100 µM | TGI (EKVX NSCLC): > 85 µM | TGI (HCC-2998 colon): > 100 µM | TGI (HCT-116 colon): 49.7 µM | TGI (HCT-15 colon): 42.4 µM | TGI (HL-60(TB) leukemia): 5.3 µM | TGI (HOP-18 NSCLC): > 69.3 µM | TGI (HOP-62 NSCLC): > 90.9 µM | TGI (HOP-92 NSCLC): 32.4 µM | TGI (HT29 colon): > 65.8 µM | TGI (IGROV1 ovarian): 55.5 µM | TGI (K-562 leukemia): 50.9 µM | TGI (KM12 colon): > 67.6 µM | TGI (KM20L2 colon): > 100 µM | TGI (LOX IMVI melanoma): > 63400 nM | TGI (LXFL 529 NSCLC): 31.5 µM | TGI (M14 melanoma): > 81.2 µM | TGI (M19-MEL melanoma): 35.8 µM | TGI (MALME-3M melanoma): > 79.2 µM | TGI (MOLT-4 leukemia): 6.78 µM | TGI (NCI-H226 lung): > 100000 nM | TGI (NCI-H23 lung): > 85.4 µM | TGI (NCI-H460 lung): > 100000 nM | TGI (NCI-H522 lung): 28 µM | TGI (OVCAR-3 ovarian): 38.3 µM | TGI (OVCAR-4 ovarian): 39.4 µM | TGI (OVCAR-5 ovarian): > 100 µM | TGI (OVCAR-8 ovarian): 28.7 µM | TGI (RPMI-8226 leukemia): 60.6 µM | TGI (RXF 393 renal): 27.4 µM | TGI (SF-268 CNS): 43.1 µM | TGI (SF-295 CNS): > 31.6 µM | TGI (SF-539 CNS): > 100 µM | TGI (SK-MEL-2 melanoma): > 84.6 µM | TGI (SK-MEL-28 melanoma): > 57.1 µM | TGI (SK-MEL-5 melanoma): > 79.3 µM | TGI (SK-OV-3 ovarian): > 100 µM | TGI (SN12C renal): > 69.1 µM | TGI (SNB-19 CNS): > 100 µM | TGI (SNB-75 CNS): > 100 µM | TGI (SNB-78 CNS): 38 µM | TGI (SR leukemia): 25.2 µM | TGI (SW-620 colon): 47 µM | TGI (TK-10 renal): 36.7 µM | TGI (U251 CNS): > 100 µM | TGI (UACC-257 melanoma): 41.5 µM | TGI (UACC-62 melanoma): > 100 µM | TGI (UO-31 renal): 41.7 µM | TGI (XF 498 CNS): 31.6 µM

Cc1cc(C)nc(NS(=O)(=O)c2ccc(Nc3c4ccccc4nc4c(C(=O)NCCN(C)C)ccc(Cl)c34)cc2)n1
TGI (786-0 renal): 14.7 µM | TGI (A549 NSCLC): 4.19 µM | TGI (ACHN renal): 8.97 µM | TGI (CCRF-CEM leukemia): 15.7 µM | TGI (COLO 205 colon): 2.64 µM | TGI (DLD-1 colon): 13.4 µM | TGI (DMS 114 small cell lung): 3.94 µM | TGI (EKVX NSCLC): 15.5 µM | TGI (HCC-2998 colon): 26.7 µM | TGI (HCT-116 colon): 7.23 µM | TGI (HCT-15 colon): 10.1 µM | TGI (HL-60(TB) leukemia): 7.6 µM | TGI (HOP-62 NSCLC): 10.2 µM | TGI (HT29 colon): 4.8 µM | TGI (IGROV1 ovarian): 11.7 µM | TGI (K-562 leukemia): 11.7 µM | TGI (KM12 colon): 12.5 µM | TGI (KM20L2 colon): 12 µM | TGI (LOX IMVI melanoma): 2250 nM | TGI (LXFL 529 NSCLC): 4.06 µM | TGI (M14 melanoma): 10.6 µM | TGI (M19-MEL melanoma): 7.84 µM | TGI (NCI-H226 lung): 2770 nM | TGI (NCI-H23 lung): 11.7 µM | TGI (NCI-H460 lung): 2700 nM | TGI (NCI-H522 lung): 3.32 µM | TGI (OVCAR-3 ovarian): 23 µM | TGI (OVCAR-4 ovarian): 4.8 µM | TGI (OVCAR-5 ovarian): 14.9 µM | TGI (OVCAR-8 ovarian): 2.69 µM | TGI (RXF 393 renal): 6.31 µM | TGI (SF-268 CNS): 8.11 µM | TGI (SF-295 CNS): 5.91 µM | TGI (SF-539 CNS): 11.5 µM | TGI (SK-MEL-2 melanoma): 12.1 µM | TGI (SK-MEL-28 melanoma): 17.9 µM | TGI (SK-MEL-5 melanoma): 15.2 µM | TGI (SN12C renal): 8.2 µM | TGI (SNB-19 CNS): 6.08 µM | TGI (SNB-75 CNS): 11 µM | TGI (SNB-78 CNS): 35.5 µM | TGI (SR leukemia): 5.46 µM | TGI (SW-620 colon): 9.04 µM | TGI (TK-10 renal): 20.3 µM | TGI (U251 CNS): 10.4 µM | TGI (UACC-62 melanoma): 3.59 µM | TGI (UO-31 renal): 4.62 µM | TGI (XF 498 CNS): 17.3 µM
